Values after ≈ are worked out from the molar mass of the structure shown. No end group written: not given here.
Columns and labels:
[1] = test system: Pseudomonas solanacearum (PS)
[2] = Synergy of Shiva-1 and lysozyme, percent viability; assay type: cell-based, Staphylococcus aureus; settings: S. aureus
Description: (§1) The percent viability of gram positive S. intermedius 19930, S. intermedius 20034, and S. aureus was determined relative to blank controls.

[3] = Synergy of Shiva-1 and lysozyme, percent viability; assay type: cell-based, Pseudomonas aeruginosa; settings: Pseudomonas aeruginosa
Description: (§2) The percent viability of Pseudomonas aeruginosa was determined relative to blank controls.

[4] = test system: Erwinia caratovora subsp. carotova (EC)
[5] = test system: Xanthomonas campestris pv. campestris (XC)
[6] = test system: Pseudomonas syringae pv. tabaci (PSPT)
[7] = Synergy of Shiva-1 and lysozyme, percent viability; assay type: cell-based, Staphylococcus intermedius
Description: as §1

in vitro [8] = assay type: cell-based, human; settings: human, human red blood cells, pH 7, Table 41, lower part; read-out: RBC LD50
[9] = test system: human red blood cells (RBC); assay: in vitro; assay type: cell-based; settings: Table 42
in vitro [10] = settings: human, WI38 normal lung fibroblast cells, WI38 LD50, Table 41, lower part
MCF7 = assay: Anti-cancer assay, MTT, LD50; assay type: cell-based
Excerpt: Numbers are LD50 values (μg/mL).

[11] = Leukocyte (WBC) inhibition, toxicity LD50; assay type: cell-based, human; settings: male, human, human leukocytes (buffy coat cells, mostly PBMCs); Table 41, lower part
Description: (§3) In vitro viability of human leukocyte cells in the presence of different peptides at different concentrations was determined by an Alamar Blue protocol. Alamar Blue (Promega, Madison, Wis.) is an indicator dye, formulated to measure quantitatively the proliferation and cytotoxicity of the cells. The dye consists of an oxidation-reduction (redox) indicator that yields a calorimetric change and a fluorescent signal in response to cellular metabolic activity.
(§4) Assay protocol: Blood from a human was drawn and centrifuged at 1500 rpm for 15 minutes at room temperature. The buffy coat cells at the plasma-red blood cell interface were aspirated. Buffy coat cells (mainly lymphocyte cells) were then transferred into 15 ml centrifuge tubes containing 5 ml of RPMI-1640 medium+10% Fetal Bovine Serum (Gibco, Grand Island, N.Y.). Additional medium was added to the tubes to bring the volume up to 10 ml. The buffy coat suspension was then carefully layered on 5 ml of Histopaque (Sigma Chemical Co., St. Louis, Mo.) and centrifuged at 1500 rpm for 30 minutes at room temperature. The interface which is mostly PBMCs (peripheral mononuclear cells) was aspirated and transferred to a 15 ml conical centrifuge tube and, resuspended in 2 ml cold RPMI-1640 and brought up to 15 ml with cold RPMI-1640 medium. Cells were centrifuged at 1500 rpm for 10 minutes. The supernatant was then aspirated and discarded. The cell pellet was re-suspended in 1 ml of cold RPMI 1640 and brought up to 15 ml with RPMI medium. This step was repeated twice, except that in the last step, the cells were resuspended with 1 ml of cold RPMI-1640 medium and cell counts were performed with a hemocytometer according to the Sigma cell culture catalogue.
(§5) Pokewood mitogen was used as a control along with positive and negative controls. Negative control cells were killed with 70% methanol. Positive (+) control cells were incubated in RPMI medium (untreated). […] of AlamarBlue was added to the cells, and readings were taken after 24 hours, 48 hours, 72 hours, and 96 hours using a fluorimeter (excitation 544/transmission 590 nm).
(§6) In choosing a peptide for possible treatment of a given indication it is important to match the therapeutic activity and specificity of the peptide with its possible toxic properties.
(§7) The protocols for WBC and WI38 stimulation have been discussed above. The RBC protocol follows Table 24.

human leukocytes (WBC) = assay: Leukocyte (WBC) inhibition, toxicity LD50; assay type: cell-based; settings: Table 42
Description: as §3, §4, §5, §6, §7

WI38 = settings: Table 42
S. aureus = assay: Synergy of Shiva-1 and lysozyme, percent viability; assay type: cell-based, Staphylococcus aureus; settings: lysozyme 10×
Description: as §1

Pseudomonas aeruginosa = assay: Synergy of Shiva-1 and lysozyme, percent viability; assay type: cell-based
Description: as §2

S. intermedius 19930 = assay: Synergy of Shiva-1 and lysozyme, percent viability; assay type: cell-based, Staphylococcus intermedius
Description: as §1

S. intermedius 20034 = assay: Synergy of Shiva-1 and lysozyme, percent viability; assay type: cell-based, Staphylococcus intermedius; settings: lysozyme 10×
Description: as §1

MPKWKVFKKIEKVGRNIRNGIVKAGPAIAVLGEAKALG-NH2 (C-terminus assumed) [SB-37]
LD50 [1]: 64.0 µM
viability at 0.01 µM [2]: 100%
viability at 0.1 µM [2]: 100%
viability at 0.5 µM [2]: 81%
viability at 1 µM [2]: 47.5%
viability at 5 µM [2]: 31.8%
viability at 10 µM [2]: 5.6%
viability at 50 µM [2]: 1.9%
viability at 0.01 µM [3]: 100%
viability at 0.1 µM [3]: 79.4%
viability at 1 µM [3]: 48.8%
viability at 5 µM [3]: 38.5%
viability at 25 µM [3]: 0%
LD50 [4]: 1.48 µM
LD50 [5]: 0.57 µM
LD50 [6]: 5.20 µM
viability at 0.01 µM ([7]; S. intermedius 19930): 100%
viability at 0.1 µM ([7]; S. intermedius 19930): 94.7%
viability at 0.5 µM ([7]; S. intermedius 19930): 69.4%
viability at 1 µM ([7]; S. intermedius 19930): 42.5%
viability at 5 µM ([7]; S. intermedius 19930): 36.1%
viability at 10 µM ([7]; S. intermedius 19930): 5.6%
viability at 50 µM ([7]; S. intermedius 19930): 0%
viability at 0.01 µM ([7]; S. intermedius 20034): 100%
viability at 0.5 µM ([7]; S. intermedius 20034): 68%
viability at 5 µM ([7]; S. intermedius 20034): 35.1%
viability at 50 µM ([7]; S. intermedius 20034): 0%

CC(C)C[C@H](NC(=O)[C@H](C)NC(=O)[C@H](CC(C)C)NC(=O)[C@H](CCCCN)NC(=O)[C@H](C)NC(=O)[C@H](CC(C)C)NC(=O)[C@H](CCCCN)NC(=O)[C@H](CCCCN)NC(=O)[C@H](C)NC(=O)[C@H](CC(C)C)NC(=O)[C@H](CCCCN)NC(=O)[C@H](C)NC(=O)[C@H](CC(C)C)NC(=O)[C@H](CCCCN)NC(=O)[C@H](CCCCN)NC(=O)[C@H](C)NC(=O)[C@@H](N)C(C)C)C(N)=O [32 (50)]
HC50 at 1 h (in vitro [8]): 420 µg/mL
RBC LD50 [9]: 420 µg/mL
CC50 at 24 h (in vitro [10]): 40 µg/mL (≈ 22.1 µM)
MCF7 LD50 (MCF7; Table 41, lower part): 32 µg/mL
MCF7 LD50 (MCF7; Table 42): 32 µg/mL
CC50 [11]: 420 µg/mL (≈ 233 µM)
WBC LD50 (human leukocytes (WBC)): 420 µg/mL
WI38 LD50 (WI38): 40 µg/mL

FAKKLAKLAKKLLAL-NH2 [20 (38)]
HC50 at 1 h (in vitro [8]): 350 µg/mL
RBC LD50 [9]: 350 µg/mL
CC50 at 24 h (in vitro [10]): 100 µg/mL
MCF7 LD50 (MCF7; Table 41, lower part): 17 µg/mL
MCF7 LD50 (MCF7; Table 42): 17 µg/mL
CC50 [11]: 54 µg/mL
WBC LD50 (human leukocytes (WBC)): 54 µg/mL
WI38 LD50 (WI38): 100 µg/mL

CC(C)C[C@H](NC(=O)[C@H](C)NC(=O)[C@H](CC(C)C)NC(=O)[C@H](CCCCN)NC(=O)[C@H](C)NC(=O)[C@H](CC(C)C)NC(=O)[C@H](CCCCN)NC(=O)[C@H](CCCCN)NC(=O)[C@H](C)NC(=O)[C@H](CC(C)C)NC(=O)[C@H](CCCCN)NC(=O)[C@H](C)NC(=O)[C@H](CC(C)C)NC(=O)[C@H](CCCCN)NC(=O)[C@H](CCCCN)NC(=O)[C@H](C)NC(=O)[C@@H](N)Cc1ccccc1)C(N)=O [17 (35)]
HC50 at 1 h (in vitro [8]): 200 µg/mL
RBC LD50 [9]: 200 µg/mL
CC50 at 24 h (in vitro [10]): 25 µg/mL (≈ 13.5 µM)
MCF7 LD50 (MCF7; Table 41, lower part): 9 µg/mL
MCF7 LD50 (MCF7; Table 42): 9 µg/mL
CC50 [11]: 25 µg/mL (≈ 13.5 µM)
WBC LD50 (human leukocytes (WBC)): 25 µg/mL
WI38 LD50 (WI38): 25 µg/mL

Lysozyme
LD50 [1]: >16.0 (key: > indicates greater than 1000.)
percent viability (S. aureus; peptide concentration 0.01 μM): 100%
percent viability (S. aureus; peptide concentration 0.1 μM): 100%
percent viability (S. aureus; peptide concentration 0.5 μM): 100%
percent viability (S. aureus; peptide concentration 1 μM): 51.0%
percent viability (S. aureus; peptide concentration 5 μM): 18.4%
percent viability (S. aureus; peptide concentration 10 μM): 13.3%
percent viability (S. aureus; peptide concentration 50 μM): 9.5%
percent viability (Pseudomonas aeruginosa; peptide concentration 0.01 μM, lysozyme at same molar concentration (1×), relative to blank controls): 100%
percent viability (Pseudomonas aeruginosa; peptide concentration 0.1 μM, lysozyme 1×): 82.2%
percent viability (Pseudomonas aeruginosa; peptide concentration 1 μM, lysozyme 1×): 52.1%
percent viability (Pseudomonas aeruginosa; peptide concentration 5 μM, lysozyme 1×): 7.9%
percent viability (Pseudomonas aeruginosa; peptide concentration 25 μM, lysozyme 1×): 0.4%
LD50 [4]: >0.44 (key: > indicates greater than 1000.)
LD50 [5]: >0.027 (key: > indicates greater than 1000.)
LD50 [6]: >0.19 (key: > indicates greater than 1000.)
percent viability (S. intermedius 19930; peptide concentration 0.01 μM, lysozyme at ten times the molar concentration (10×)): 100%
percent viability (S. intermedius 19930; peptide concentration 0.1 μM, lysozyme 10×): 100%
percent viability (S. intermedius 19930; peptide concentration 0.5 μM, lysozyme 10×): 81.3%
percent viability (S. intermedius 19930; peptide concentration 1 μM, lysozyme 10×): 53%
percent viability (S. intermedius 19930; peptide concentration 5 μM, lysozyme 10×): 49.5%
percent viability (S. intermedius 19930; peptide concentration 10 μM, lysozyme 10×): 34.4%
percent viability (S. intermedius 19930; peptide concentration 50 μM, lysozyme 10×): 22%
percent viability (S. intermedius 20034; peptide concentration 0.01 μM): 100%
percent viability (S. intermedius 20034; peptide concentration 0.5 μM): 59.0%
percent viability (S. intermedius 20034; peptide concentration 5 μM): 38.3%
percent viability (S. intermedius 20034; peptide concentration 50 μM): 10.0%

Reference: patent US20050209157A1, “Short bioactive peptides and methods for their use” (priority 2001, published 2005)
